For the assay, the system named is DLD-1 cells. Description: Complementary NanoLuc fragment-fused Annexin V real-time apoptosis assay. Type of assay: cell-based. Conditions: 10,000 DLD-1 cells/well; rhTRAIL; t=3.5, 7, 24 and 30 hr. An excerpt:
Small and large fragments of luciferase have been engineered as fusion proteins linked to annexin V for detecting of apoptosis in real-time using a plate-reading luminometer. The individual annexin V-luciferase fragment fusion pairs have low intrinsic affinity for each other, and thus produce no or low luminescence in culture medium or in the presence of non-apoptotic cells; but, when the annexin V-luciferase fragment fusion proteins bind in close proximity to phosphatidylserine exposed on the surface of apoptotic cells, the luciferase fragments reconstitute an active enzyme and generate a luminescent signal.
General protocol for complementary NanoLuc® fragment-fused-Annexin V binding: DLD-1 cells (10,000/well; 100 μL) were plated in medium+10% FBS and 2× CellTox Green in a solid white 96-well plate. After the cells were allowed to attach, 50 μL of recombinant human TRAIL at final concentration 500 ng/ml in medium+10% FBS fortified with 1 mM CaCl2 was added. […] The plate was incubated at 37° C./5% CO2 in a tissue culture incubator, and luminescence and fluorescence (Ex 485/Em 520) was measured kinetically at the indicated time points. […] The kinetically preceded increases in fluorescence of Cytotox Green indicate cell death. […]

These results are taken from patent publication US10836767B2, “Serum stable pro-coelenterazine analogues” (PROMEGA CORPORATION, priority 2017, dated 2020).

Turning to `COCCOCCOCCOCC(C)(C)C(=O)OCOc1c(Cc2ccco2)nc2c(Cc3ccccc3)nc(-c3ccccc3)cn12` [WZ-0336, ((8-benzyl-2-(furan-2-ylmethyl)-6-phenylimidazo[1,2-a]pyrazin-3-yl)oxy)methyl 13,13-dimethyl-2,5,8,11-tetraoxatetradecan-14-oate], the “luminescence response to TRAIL with the compound as pro-substrate” value is recorded as “dose-dependent increases in luminescence”.
